Consider eight compounds from patent publication EP4740942A1, “AROMATIC AMIDE DERIVATIVE AND USE THEREOF” (HUAJIAN FUTURE (CHENGDU) TECHNOLOGY CO., LTD., priority 2023, dated 2025).

One data set relates to lung cancer cells A427. Nature of the data set: 3D model proliferation inhibitory activity test against lung cancer cells A427 (CellTiter-3D-Glo). The following applies: Homo sapiens, A-427, low-adhesion 96-well U-bottom plate. The format is cell-based. On the procedure:
(§1) Cell proliferation activity was detected by a CellTiter-3D-Glo reagent method. A specific method was as follows: A427 cells in logarithmic growth period were digested, diluted to a suitable cell density with MEM complete medium containing 10% FBS and 1% PS, inoculated into a low-adhesion 96-well U-bottom plate, and cultured in 5% CO2; and then a series of to-be-tested compounds with concentration gradient was added, and incubated in a 5% CO2 incubator. After finishing the incubation, the cells were lysed and detected by using the CellTiter-3D-Glo reagent. Chemiluminescence values were measured by a microplate reader, and data were fitted by Graphpad Prism software, so as to calculate IC50 values of tested substances.

For data set [1], the system named is colorectal cancer cells SW480. The data set can be described thus: 3D model proliferation inhibitory activity test against colorectal cancer cells SW480 (CellTiter-3D-Glo). As to conditions: Homo sapiens, low-adhesion 96-well U-bottom plate. The format is cell-based. On the procedure:
as §1, with “SW480” for “A427”, “DMEM” for “MEM”

Data set [2] relates to colorectal cancer cells HCT116. The data set can be described thus: Proliferation inhibitory activity test against colorectal cancer cells HCT116 (CellTiter-3D-Glo). The format is cell-based. As to conditions: Homo sapiens, HCT-116, low-adhesion 96-well U-bottom plate. The procedure: Cell proliferation activity was detected by a CellTiter-3D-Glo reagent method. A testing process was as follows: HCT116 cells in logarithmic growth period were digested, diluted to a suitable cell density with McCoy's 5A complete medium containing 10% FBS and 1% PS, inoculated into a low-adhesion 96-well U-bottom plate, and cultured in 5% CO2; and then a series of to-be-tested compounds with concentration gradient was added, and the system was incubated in a 5% CO2 incubator. After finishing the incubation, the cells were lysed and detected by using the CellTiter-3D-Glo reagent. Chemiluminescence values were measured by a microplate reader, and data were fitted by Graphpad Prism software, so as to calculate IC50 values of tested substances. Test results can be seen in the following table: wherein, "A" represents inhibitory activity IC50 < 20 nM, "B" represents inhibitory activity 20 nM ≤ IC50 < 50 nM, and "C" represents inhibitory activity IC50 ≥ 50 nM.

Data set [3] in a line: In-vivo pharmacokinetic study in SD rats. As to conditions: 0.2 mg/kg. On the procedure: Pharmacokinetic study on compound 4-1 in SD rats was conducted. 12 SD rats (half male and half female) were selected and randomly divided into 2 groups (3 rats/sex/group) according to their body weights, and the groups were recorded as a group 1 and a group 2, which were administered with 0.2 mg/kg compound 4-1 by intravenous and oral gavage route respectively. All the experimental animals were administered with a single dose on Day 0, and a drug administration moment was recorded as 0 hour. About 0.25 mL of whole blood (EDTA-K2) was respectively collected from all the experimental animals in group 1 before the drug administration, at 5 minutes, 15 minutes, 30 minutes, 1 hour, 2 hours, 4 hours, 6 hours, 8 hours and 24 hours after finishing the drug administration to prepare plasma; and about 0.25 mL of whole blood (EDTA-K2) was respectively collected from all the experimental animals in group 2 before the drug administration, at 15 minutes, 30 minutes, 1 hour, 2 hours, 4 hours, 6 hours, 8 hours and 24 hours after finishing the drug administration to prepare plasma. The compounds in the plasma samples were quantitatively determined by a LC-MS/MS method, and pharmacokinetic parameters were analyzed and calculated by non-compartmental analysis.

For data set [4], the system named is colorectal cancer cells SW480. The data set can be described thus: Pharmacodynamic experiment of subcutaneous xenograft tumor model of colorectal cancer cells SW480. The format is in vivo, BALB/c nude mice. As to conditions: 0.2 mg/kg, QD × 18 days, oral gavage. On the procedure:
Animal species and number: BALB/c nude mice, 6 mice in each group.
Experimental samples: compound 4-1 and compound Ref A-1.
Experimental groups: blank solvent control group, compound 4-1 (0.2 mg/kg, QD × 18 days) and compound Ref A-1 (0.2 mg/kg, QD × 18 days).
Establishment of animal model: SW480 tumor cells in logarithmic growth period were cultured and collected in vitro, and inoculated subcutaneously in right backs of the Balb/c Nude mice, and when tumors grew to about 180-250 mm^3, the tumor-bearing mice were randomly divided into groups. Subsequently, each group of animals were administered with drugs, and the first day of drug administration was defined as the 1st day of the experiment.
Drug administration route and frequency: oral gavage, once per day, for 18 consecutive days.
General state observation: the mice were observed once per day, and observation contents included, but were not limited to, locally administered parts, physical signs, general behaviors, mental states, death and other situations, and other abnormal manifestations of the animals.
Tumor volume calculation: V = 0.5 a × b^2, wherein a was a long diameter of tumor and b was a short diameter of tumor. Tumor growth inhibition rates TGI (%) were used to evaluate anti-tumor effects of the compounds. […]

Data set [5] has as its system pancreatic cancer cells MIA PaCa-2. The data set can be described thus: Pharmacodynamic experiment of subcutaneous xenograft tumor model of pancreatic cancer cells MIA PaCa-2. The format is in vivo, BALB/c nude mice. As to conditions: 0.2 mg/kg, QD × 15 days, oral gavage; for diets, weights and activities of the animals during the drug administration / Tumor inhibition rate: BALB/c nude mice; for Tumor inhibition rate: MIA PaCa-2 subcutaneous xenograft; for inhibitory effects on the growth of subcutaneously transplanted tumors of pancreatic cancer MIA PaCa-2 cells in the nude mice: result in words.

For orientation: IC50 means the concentration that inhibits the measured activity by half. `[2H]C([2H])(C=C)NC(=O)c1cc(Cc2ccnc(NS(=O)(=O)NC)c2F)c(F)c(F)c1Nc1ccc(I)cc1F` [Compound 4-7, N-(allyl-1,1-d2) -3,4-difluoro-5-((3-fluoro-2-((N-methylaminosulfonyl)amino)pyridin-4-yl)methyl)-2-((2-fluoro-4-iodophenyl)amino)benzamide] showed an IC50 with lung cancer cells A427 of 1.09 nM.
In the case of `C=CCCONC(=O)c1cc(Cc2ccnc(NS(=O)(=O)NC)c2F)c(F)c(F)c1Nc1ccc(I)cc1F` [Compound 5-2, N-(but-3-en-1-yloxy)-3,4-difluoro-5-((3-fluoro-2-((N-methylaminosulfonyl)amino)pyridin-4-yl)methyl)-2-((2-fluoro-4-iodophenyl)amino)benzamide], the IC50 in data set [1] was determined as 0.63 nM.
In the case of `[2H]C([2H])([2H])NS(=O)(=O)Nc1nccc(Cc2cc(C(=O)NCC=C)c(Nc3ccc(I)cc3F)c(F)c2F)c1F` [Compound 4-10, N-allyl-3,4-difluoro-5-((3-fluoro-2-((N-methyl-d3-aminosulfonyl)amino)pyridin-4-yl)methyl)-2-((2-fluoro-4-iodophenyl)amino)benzamide], the figures for the IC50 (in data set [2]; in the data set on lung cancer cells A427; in data set [1]) were less than 20 nM, 0.89 nM and 1.05 nM, respectively.
Take `C=CCNC(=O)c1cc(Cc2ccnc(NS(=O)(=O)NCC)c2F)c(F)c(F)c1Nc1ccc(I)cc1F` [Compound 4-8, N-allyl-5-((2-((N-ethylaminosulfonyl)amino)-3-fluoropyridin-4-yl)methyl)-3,4-difluoro-2-((2-fluor o-4-iodophenyl)amino)benzamide]: the results for the IC50 (in data set [2]; in the data set with lung cancer cells A427) were less than 20 nM and 2.88 nM, respectively.
Turning to `C=C[C@@H](C)NC(=O)c1cc(Cc2ccnc(NS(=O)(=O)NC)c2F)c(F)c(F)c1Nc1ccc(I)cc1F` [Compound 4-5, (R)-N-(but-3-en-2-yl)-3,4-difluoro-5-((3-fluoro-2-((N-methylaminosulfonyl)amino)pyridin-4-yl)methyl)-2-((2-fluoro-4-iodophenyl)amino)benzamide], the values for the IC50 (in data set [2]; in the data set with lung cancer cells A427) were less than 20 nM and 2.13 nM, respectively.
Usually bioavailability stands for dose-corrected exposure relative to a reference, in per cent. Turning to `C=CCNC(=O)c1cc(Cc2ccnc(NS(=O)(=O)NC)c2F)c(F)c(F)c1Nc1ccc(I)cc1F` [Compound 4-1, N-allyl-3,4-difluoro-5-((3-fluoro-2-((N-methylaminosulfonyl)amino)pyridin-4-yl)methyl)-2-((2-fluoro-4-iodophenyl)amino)benzamide], the IC50 in data set [2] is less than 20 nM; in the data set with lung cancer cells A427, 1.16 nM; in data set [1] it was 0.89 nM. Moreover, in data set [3] (both sexes, rat, plasma, single dose, intravenous and oral gavage, read-out: absolute bioavailability (F%)), the bioavailability was greater than 65%. In data set [3] (result in words), the “absorption and clearance rates” value is reported as “greater”. For the same compound, the Tumor inhibition rate entry was “++++ (tumor inhibition rate > 100%)” in data set [4] (SW480 subcutaneous xenograft, BALB/c nude mice) and “+++ (tumor inhibition rate > 90%)” in data set [5]. The “inhibitory effect on the growth of subcutaneously transplanted tumors of colorectal cancer SW480 cells in the nude mice” value in data set [4] (result in words) is on record as “significant inhibitory effect”. In data set [5], the “diets, weights and activities of the animals during the drug administration” value is “normal”. Besides, in data set [5], the “inhibitory effects on the growth of subcutaneously transplanted tumors of pancreatic cancer MIA PaCa-2 cells in the nude mice” value is listed as “significant inhibitory effects”.
For `C=CCNC(=O)c1cc(Cc2ccnc(NS(=O)(=O)NC)c2F)c(F)c(F)c1Nc1ccc(C=C)cc1F` [Compound 4-14, N-allyl-3,4-difluoro-5-((3-fluoro-2-((N-methylaminosulfonyl)amino)pyridin-4-yl)methyl)-2-((2-fluoro-4-vinylphenyl)amino)benzamide], the IC50 is less than 20 nM in data set [2] and 2.67 nM in data set [1].
On to `C=CCONC(=O)c1cc(Cc2ccnc(NS(=O)(=O)NC)c2F)c(F)c(F)c1Nc1ccc(I)cc1F` [Compound 5-1, N-(allyloxy)-3,4-difluoro-5-((3-fluoro-2-((N-methylaminosulfonyl)amino)pyridin-4-yl)methyl)-2-((2-fluoro-4-iodophenyl)amino)benzamide], for which, in the data set with lung cancer cells A427, 0.53 nM corresponded to half-maximal inhibition (IC50). Besides, in data set [5], the “diets, weights and activities of the animals during the drug administration” value is reported as “normal”; the Tumor inhibition rate entry is on record as “+++ (tumor inhibition rate > 90%)”; the “inhibitory effects on the growth of subcutaneously transplanted tumors of pancreatic cancer MIA PaCa-2 cells in the nude mice” value is on record as “significant inhibitory effects”. The same compound came in with an IC50 in data set [1] of 0.17 nM.
